Key:
Assay in all cases: relative viability (nuclei count vs DMSO), 5 days (fraction); higher = more cells survive
NPK76-II-72-1 + AZD7762 = compound: CC1CC(=O)N(C2=CN=C(N=C2N1C3CCCC3)NC4=C(C=C(C=C4)C(=O)NC5CCN(CC5)C)OC)C [NPK76-II-72-1] + NC(=O)Nc1cc(-c2cccc(F)c2)sc1C(=O)N[C@H]1CCCNC1 [AZD7762] (partner 0.2 µM)
Method in brief: (§1)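 Medians of duplicate plates are given as relative viability. That measure is the nuclei count in treated wells divided by the count in vehicle wells. Counts were taken on 4× images of lung cancer cell lines in 1536-well plates, 5 days after pin-tool dosing the day after seeding with one drug alone or a fixed anchor-drug dose plus five library-drug doses (not always all listed) in √10 steps.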

BI-2536 + Phenformin = compound: CC[C@@H]1C(=O)N(C)c2cnc(Nc3ccc(C(=O)NC4CCN(C)CC4)cc3OC)nc2N1C1CCCC1 [BI-2536] + N=C(N)NC(=N)NCCc1ccccc1 [Phenformin] (partner 250 µM)
Method in brief: as §1

[1] = compound: CC1CC(=O)N(C2=CN=C(N=C2N1C3CCCC3)NC4=C(C=C(C=C4)C(=O)NC5CCN(CC5)C)OC)C [NPK76-II-72-1] + CS(=O)(=O)N1CCN(Cc2cc3nc(-c4cccc5[nH]ncc45)nc(N4CCOCC4)c3s2)CC1 [Pictilisib] (partner 1 µM)
Method in brief: as §1

[2] = compound: CC1CC(=O)N(C2=CN=C(N=C2N1C3CCCC3)NC4=C(C=C(C=C4)C(=O)NC5CCN(CC5)C)OC)C [NPK76-II-72-1] + CC(=O)Nc1cccc(-n2c(=O)n(C3CC3)c(=O)c3c(Nc4ccc(I)cc4F)n(C)c(=O)c(C)c32)c1 [Trametinib] (partner 0.02 µM)
Method in brief: as §1

| Cell Line | relative viability (NPK76-II-72-1 + AZD7762; first compound 0.01 µM) | relative viability (NPK76-II-72-1 + AZD7762; first compound 0.03162 µM) | relative viability (NPK76-II-72-1 + AZD7762; first compound 0.1 µM) | relative viability (NPK76-II-72-1 + AZD7762; first compound 0.3162 µM) | relative viability (NPK76-II-72-1 + AZD7762; first compound 1 µM) | relative viability (BI-2536 + Phenformin; first compound 0.01 µM) | relative viability (BI-2536 + Phenformin; first compound 0.03162 µM) | relative viability (BI-2536 + Phenformin; first compound 0.1 µM) | relative viability (BI-2536 + Phenformin; first compound 0.3162 µM) | relative viability (BI-2536 + Phenformin; first compound 1 µM) | relative viability ([1]; first compound 0.01 µM) | relative viability ([1]; first compound 0.03162 µM) | relative viability ([1]; first compound 0.1 µM) | relative viability ([1]; first compound 0.3162 µM) | relative viability ([1]; first compound 1 µM) | relative viability ([2]; first compound 0.01 µM) | relative viability ([2]; first compound 0.03162 µM) | relative viability ([2]; first compound 0.1 µM) | relative viability ([2]; first compound 0.3162 µM) | relative viability ([2]; first compound 1 µM) |
| --- | --- | --- | --- | --- | --- | --- | --- | --- | --- | --- | --- | --- | --- | --- | --- | --- | --- | --- | --- | --- |
| NCI-H1975 | 0.727 | 0.733 | 0.686 | 0.694 | 0.734 | 0.394 | 0.355 | 0.215 | 0.126 | 0.118 | 0.267 | 0.278 | 0.28 | 0.279 | 0.277 | 0.348 | 0.329 | 0.303 | 0.323 | 0.401 |
| CAL-12T | 0.65 | 0.718 | 0.506 | 0.645 | 0.724 | 0.543 | 0.422 | 0.289 | 0.134 | 0.115 | 0.448 | 0.39 | 0.42 | – | 0.453 | 0.325 | 0.346 | 0.362 | 0.306 | 0.37 |
| NCI-H1623 | – | – | – | – | – | 0.564 | 0.54 | 0.556 | 0.445 | 0.588 | – | – | – | – | – | – | – | – | – | – |
| HCC-44 | 1.02 | 1.09 | 0.966 | 0.999 | 1.07 | 0.184 | 0.242 | 0.0815 | 0.1 | 0.0914 | 0.542 | 0.911 | 0.624 | 0.587 | 0.685 | 1.06 | 1.27 | 0.95 | 0.992 | 0.988 |
| EKVX | 0.672 | 0.629 | 0.718 | – | 0.83 | 0.242 | 0.224 | 0.225 | 0.242 | 0.211 | 0.418 | 0.437 | 0.437 | 0.388 | 0.508 | 0.359 | 0.32 | 0.367 | – | 0.384 |
| NCI-H1651 | 0.436 | 0.449 | 0.471 | 0.377 | 0.501 | 0.296 | 0.197 | 0.136 | 0.104 | 0.102 | 0.432 | 0.548 | 0.703 | 0.557 | 0.592 | 0.83 | 0.82 | 0.839 | 0.794 | 0.816 |
| NCI-H1944 | 0.456 | 0.509 | 0.779 | 0.572 | 0.595 | 0.206 | 0.243 | 0.122 | 0.0925 | 0.113 | 0.351 | 0.352 | 0.318 | 0.338 | 0.35 | 0.372 | 0.413 | 0.423 | 0.351 | 0.408 |
| NCI-H1703 | 0.144 | 0.115 | 0.174 | – | 0.0937 | – | – | – | – | – | 0.257 | 0.224 | 0.298 | 0.283 | 0.254 | – | – | – | – | – |
| Calu-6 | – | – | – | – | – | – | – | – | – | – | 0.894 | 1.01 | 0.953 | 0.757 | 1.05 | – | – | – | – | – |
| EBC-1 | – | – | – | – | – | – | – | – | – | – | 0.404 | 0.432 | 0.536 | 0.347 | 0.456 | – | – | – | – | – |
| SW 1573 | – | – | – | – | – | 0.333 | 0.283 | 0.131 | 0.106 | 0.0811 | 0.425 | 0.497 | 0.498 | 0.455 | 0.463 | 0.471 | 0.511 | 0.633 | 0.483 | 0.658 |
| A-427 | 0.682 | 0.673 | 0.945 | 0.796 | 0.814 | 0.35 | 0.273 | 0.151 | 0.0945 | 0.134 | 0.747 | 0.796 | 0.685 | 0.632 | 0.706 | 0.732 | 0.743 | 0.812 | 0.691 | 0.812 |
| NCI-H2347 | 0.805 | 0.755 | 0.646 | 0.704 | 0.883 | – | 0.28 | 0.382 | 0.276 | 0.211 | 0.811 | 0.817 | 0.727 | 0.773 | 0.631 | 0.353 | 0.283 | 0.296 | 0.302 | 0.26 |
| NCI-H1355 | 0.686 | 0.792 | 0.857 | 0.767 | 0.748 | 0.427 | 0.408 | 0.219 | 0.193 | 0.196 | 0.409 | 0.391 | 0.432 | 0.434 | 0.442 | 0.468 | 0.452 | 0.421 | 0.395 | 0.44 |
| NCI-H358 | 0.521 | 0.525 | 0.611 | – | 0.683 | 0.363 | 0.172 | 0.0663 | 0.0665 | 0.072 | 0.352 | 0.364 | 0.334 | 0.3 | 0.332 | 0.14 | 0.145 | 0.204 | – | 0.151 |
| PC-3 [JPC-3] | 0.766 | – | 0.738 | 0.917 | 0.751 | 0.477 | 0.461 | 0.271 | 0.202 | 0.176 | 0.779 | 0.772 | 0.561 | 0.667 | 0.743 | 0.701 | – | 0.705 | 0.737 | 0.703 |
| NCI-H2228 | – | – | – | – | – | 0.328 | 0.214 | 0.129 | 0.106 | 0.102 | 0.359 | 0.497 | 0.503 | 0.402 | 0.483 | 0.348 | 0.63 | 0.538 | 0.285 | 0.571 |
| HOP-62 | 0.405 | 0.507 | 0.556 | 0.444 | 0.514 | 0.7 | 0.654 | 0.43 | 0.141 | 0.141 | 0.606 | 0.766 | 0.778 | 0.696 | 0.613 | 0.384 | 0.415 | 0.337 | 0.428 | 0.37 |
| HARA | 0.292 | 0.464 | 0.297 | – | 0.451 | 0.511 | 0.55 | 0.376 | 0.049 | 0.0462 | 0.371 | 0.368 | 0.46 | 0.26 | 0.377 | 0.83 | 0.864 | 0.619 | – | 0.856 |

From the supplement of paper PMC10307832
